Data on eight molecules can be found in ChEMBL document CHEMBL1135037 (Bioorg Med Chem Lett, 2002).

In assay [1] the target is T1, Serine-threonine protein phosphatase 2A regulatory subunit (Gallus gallus) (UniProt Q8AWE3).
T1 sequence (whole entry): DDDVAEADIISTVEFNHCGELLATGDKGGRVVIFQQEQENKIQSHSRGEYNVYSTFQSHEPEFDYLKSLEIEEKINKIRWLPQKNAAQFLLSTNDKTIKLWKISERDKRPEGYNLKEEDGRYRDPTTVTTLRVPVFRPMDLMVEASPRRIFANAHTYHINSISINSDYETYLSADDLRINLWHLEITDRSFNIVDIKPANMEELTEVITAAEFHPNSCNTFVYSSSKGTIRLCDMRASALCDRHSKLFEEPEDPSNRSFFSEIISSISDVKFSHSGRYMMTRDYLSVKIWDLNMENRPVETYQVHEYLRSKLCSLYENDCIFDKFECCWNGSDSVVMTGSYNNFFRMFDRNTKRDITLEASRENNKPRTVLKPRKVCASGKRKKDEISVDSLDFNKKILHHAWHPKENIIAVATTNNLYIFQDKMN
The assay is described as follows: Inhibition against PP2A at 100 uM.

Assay [2] can be described thus: Inhibition against PP1 at 100 uM.
A short description of assay [3]: Inhibitory concentration against PP1 was determined.
The target of assay [4] is T2, Serine-threonine protein phosphatase 2A regulatory subunit (Gallus gallus, UniProt Q8AWE3).
T2 sequence (Q8AWE3 whole entry): T1 sequence (whole entry)
Kind of assay: Concentration required to inhibit the action of protein phosphatase 2A.

A short description of assay [5]: Selectivity was calculated against protein phosphatase 1.
For assay [6], the species on record is Homo sapiens. Kind of assay: Selectivity against Protein phosphatase 2A.
Assay [7] in a line: Selectivity was evaluated against Protein phosphatase 1.

Structures are written as SMILES. Some results are limits rather than exact numbers.

With `COC(=O)C1C(C(=O)OC)[C@H]2C=C[C@@H]1S2` (some centres not stated), the inhibition in assay [1] and in assay [2] was 3% throughout.

For `O=C1OC(=O)C2C1[C@@H]1CC[C@H]2O1` (some centres not stated), the inhibition came to 97% in assay [1] and 90% in assay [2]. Besides, the IC50 in assay [3] is 2.4 µM.

With `O=C1OC(=O)C2C1[C@@H]1C=C[C@H]2S1` (some centres not stated), the inhibition in assay [1] and in assay [2] was 0% in each case.

`COC[C@@H]([C@H](O)[C@H](O)C(=O)NCC[C@H](C)c1nc(/C=C/C[C@@H]2O[C@]3(C[C@@H](O)[C@@H]2C)O[C@H]([C@H](C[C@H](O)[C@H](C)[C@H](O)[C@H](C)/C=C(C)/C(C)=C/C=C/C(C)=C\C#N)OC)[C@H](OP(=O)(O)O)C3(C)C)co1)N(C)C` [CALYCULIN A] registered an IC50 in assay [4] of 0.002 µM.

On to `COC(=O)C1C(C(=O)OC)[C@H]2C=C[C@@H]1O2` (some centres not stated), for which the IC50 in assay [4] is greater than 2000 µM; in assay [3], 50 µM. Besides, the inhibition turned out to be 6% in assay [1] and 46% in assay [2]. For the same molecule, the Selectivity in assay [5] is greater than 40.

On to `C[C@@](O)(/C=C/[C@H]1CC=CC(=O)O1)[C@@H](C[C@@H](O)\C=C/C=C\C=C\CO)OP(=O)(O)O` [FOSTRIECIN SODIUM], for which the IC50 in assay [4] stood at 0.0034 µM; in assay [3], 130 µM. Moreover, the Selectivity in assay [6] was greater than 40000.

As for `C[C@@]12C(=O)OC(=O)[C@]1(C)[C@H]1CC[C@@H]2O1` [CANTHARIDIN], in assay [3], inhibition was half-maximal at 0.16 µM (IC50).

In the case of `O=C1NC(=O)C2C1[C@@H]1C=C[C@H]2S1` (some centres not stated), the IC50 in assay [4] is 426 µM; in assay [3] it was 12.5 µM. Moreover, the inhibition was 30% in assay [1] and 87% in assay [2]. The Selectivity in assay [7] worked out at 34.
